Results reported in patent US11787825B2 (priority 2021, dated 2023).
≈ marks a conversion by molar mass, not a printed value. Like-named read-outs stand apart in the source and are kept apart here. Marks after values point to notes of the source that are not given here.

Assays:
[1] = Beagle, in vivo, po; for Dog F % (suspension): pH 2
physchem = settings: 25 °C, thermodynamic from solid
[2] = 0.1N HCL, 1.0% DMSO, 24-hour incubation at ambient temperature, maximum theoretical compound concentration 100 μM
[3] = 1×PBS buffer (pH 7.4), 1.0% DMSO, 24-hour incubation at ambient temperature, maximum theoretical compound concentration 100 μM
[4] = fasted state simulated intestinal fluid (FaSSIF), fassif
[5] = fed state simulated intestinal fluid (FeSSIF), fessif

With `CC(C)(C#Cc1ccc(-c2ccc(Cl)c3c(N(C(=O)/C=C/C(=O)N(CCC(=O)O)[C@@H](CC(=O)O)C(=O)O)S(C)(=O)=O)nn(CC(F)(F)F)c23)c([C@H](Cc2cc(F)cc(F)c2)NC(=O)Cn2nc(C(F)(F)F)c3c2C(F)(F)[C@@H]2C[C@H]32)n1)S(C)(=O)=O` [Compound 3, N-(2-carboxyethyl)-N—((E)-4-(N-(4-chloro-7-(2-((S)-1-(2-((3bS,4aR)-5,5-difluoro-3-(trifluoromethyl)-3b,4,4a,5-tetrahydro-111-cyclopropa[3,4]cyclopenta[1,2-c]pyrazol-1-yl)acetamido)-2-(3,5-difluorophenyl)ethyl)-6-(3-methyl-3-(methylsulfonyl)but-1-yn-1-yl)pyridin-3-yl)-1-(2,2,2-trifluoroethyl)-1H-indazol-3-yl)methylsulfonamido)-4-oxobut-2-enoyl)-L-aspartic acid] the “Dog F % (suspension)” value [1] was 10%.
With `Cc1cc(CC(=O)N[C@@H](CC(=O)O)C(=O)O)c(C(C)(C)CC(=O)N(c2nn(CC(F)(F)F)c3c(-c4ccc(C#CC(C)(C)S(C)(=O)=O)nc4[C@H](Cc4cc(F)cc(F)c4)NC(=O)Cn4nc(C(F)(F)F)c5c4C(F)(F)[C@@H]4C[C@H]54)ccc(Cl)c23)S(C)(=O)=O)c(OP(=O)(O)O)c1` [Compound 59, (2-(2-(4-(N-(4-chloro-7-(2-((S)-1-(2-((3bS,4aR)-5,5-difluoro-3-(trifluoromethyl)-3b,4,4a,5-tetrahydro-1H-cyclopropa[3,4]cyclopenta[1,2-c]pyrazolyl)acetamido)-2-(3,5-difluorophenyl)ethyl)-6-(3-methyl-3-(methylsulfonyl)but-1-ynyl)pyridin-3-yl)-1-(2,2,2-trifluoroethyl)-1H-indazol-3-yl)methylsulfonamido)-2-methyloxobutan-2-yl)-5-methyl-3-(phosphonooxy)phenyl)acetyl)-L-aspartic acid] the “Dog F % (solution)” value [1] was 27 ^c %.
For `CC(C)(C#Cc1ccc(-c2ccc(Cl)c3c(N(C(=O)CCCN(C(=O)OCOP(=O)(O)O)[C@H](C(=O)O)c4ccccc4)S(C)(=O)=O)nn(CC(F)(F)F)c23)c([C@H](Cc2cc(F)cc(F)c2)NC(=O)Cn2nc(C(F)(F)F)c3c2C(F)(F)[C@@H]2C[C@H]32)n1)S(C)(=O)=O` [Compound 40], the “Dog F % (suspension)” value [1] was 5%, the “pH 2 solubility” value [2] was 1 μM and the “pH 7 solubility” value [3] was 100 μM.
With `CN(C)CCCC[C@@H](C(=O)N(c1nn(CC(F)(F)F)c2c(-c3ccc(C#CC(C)(C)S(C)(=O)=O)nc3[C@H](Cc3cc(F)cc(F)c3)NC(=O)Cn3nc(C(F)(F)F)c4c3C(F)(F)[C@@H]3C[C@H]43)ccc(Cl)c12)S(C)(=O)=O)N(C)C` [Compound 6, (S)—N-(4-chloro-7-(2-((S)-1-(2-((3bS,4aR)-5,5-difluoro-3-(trifluoromethyl)-3b,4,4a,5-tetrahydro-1H-cyclopropa[3,4]cyclopenta[1,2-c]pyrazol-1-yl)acetamido)-2-(3,5-difluorophenyl)ethyl)-6-(3-methyl-3-(methylsulfonyl)but-1-yn-1-yl)pyridin-3-yl)-1-(2,2,2-trifluoroethyl)-1H-indazol-3-yl)-2,6-bis(dimethylamino)-N-(methylsulfonyl)hexanamide] the “pH 2 solubility” value [2] was 100 μM, the “pH 7 solubility” value [3] was 9 μM and the solubility (physchem; [4]) was 21 µg/mL (≈ 18.2 µM). It also gave a solubility (physchem; [5]) of 1 µg/mL (≈ 0.868 µM).
With `CC(C)(C#Cc1ccc(-c2ccc(Cl)c3c(N(C(=O)CCCC(=O)OCOP(=O)(O)O)S(C)(=O)=O)nn(CC(F)(F)F)c23)c([C@H](Cc2cc(F)cc(F)c2)NC(=O)Cn2nc(C(F)(F)F)c3c2C(F)(F)[C@@H]2C[C@H]32)n1)S(C)(=O)=O` [Compound 29, (phosphonooxy)methyl 5-(N-(4-chloro-7-(2-((S)-1-(2-((3bS,4aR)-5,5-difluoro-3-(trifluoromethyl)-3b,4,4a,5-tetrahydro-1H-cyclopropa[3,4]cyclopenta[1,2-c]pyrazol-1-yl)acetamido)-2-(3,5-difluorophenyl)ethyl)-6-(3-methyl-3-(methylsulfonyl)but-1-yn-1-yl)pyridin-3-yl)-1-(2,2,2-trifluoroethyl)-1H-indazol-3-yl)methylsulfonamido)-5-oxopentanoate] the “pH 2 solubility” value [2] was 2 μM, the “pH 7 solubility” value [3] was 92 μM and the solubility (physchem; [4]) was 268 µg/mL (≈ 225 µM). For the same molecule, the solubility (physchem; [5]) was 130 µg/mL (≈ 109 µM).
With `CC(C)(C#Cc1ccc(-c2ccc(Cl)c3c(NS(C)(=O)=O)nn(CC(F)(F)F)c23)c([C@H](Cc2cc(F)cc(F)c2)NC(=O)Cn2nc(C(F)(F)F)c3c2C(F)(F)[C@@H]2C[C@H]32)n1)S(C)(=O)=O` [Intermediate 5, N—((S)-1-(3-(4-chloro-3-(methylsulfonamido)-1-(2,2,2-trifluoroethyl)-1H-indazol-7-yl)-6-(3-methyl-3-(methylsulfonyl)but-1-yn-1-yl)pyridin-2-yl)-2-(3,5-difluorophenyl)ethyl)-2-((3bS,4aR)-5,5-difluoro-3-(trifluoromethyl)-3b,4,4a,5-tetrahydro-1H-cyclopropa[3,4]cyclopenta[1,2-c]pyrazol-1-yl)acetamide, reference compound] the “pH 2 solubility” value [2] was 0.11 μM, the “pH 7 solubility” value [3] was 0.32 μM and the solubility (physchem; [4]) was 4 µg/mL (≈ 4.13 µM). It also gave a solubility (physchem; [5]) of 4.2 µg/mL (≈ 4.34 µM).
In the case of `CC(C)(C#Cc1ccc(-c2ccc(Cl)c3c(N(C(=O)Cc4ccc(OP(=O)(O)O)cc4)S(C)(=O)=O)nn(CC(F)(F)F)c23)c([C@H](Cc2cc(F)cc(F)c2)NC(=O)Cn2nc(C(F)(F)F)c3c2C(F)(F)[C@@H]2C[C@H]32)n1)S(C)(=O)=O` [Compound 51, 4-(2-(N-(4-chloro-7-(2-((S)-1-(2-((3bS,4aR)-5,5-difluoro (trifluoromethyl)-3b,4,4a,5-tetrahydro-1H-cyclopropa[3,4]cyclopenta[1,2-c]pyrazolyl)acetamido)-2-(3,5-difluorophenyl)ethyl)-6-(3-methyl-3-(methylsulfonyl)but-1-ynyl)pyridin-3-yl)-1-(2,2,2-trifluoroethyl)-1H-indazol-3-yl)methylsulfonamido)oxoethyl)phenyl dihydrogen phosphate], the “pH 2 solubility” value (pH 2) is reported as 1/100 μM, the “pH 7 solubility” value (pH 7.4) is reported as 1/100 μM and the solubility (physchem; fassif) is reported as 1750 µg/mL. For the same molecule, the solubility (physchem; fessif) was 1450 µg/mL.
For `CC(C)(C#Cc1ccc(-c2ccc(Cl)c3c(N(C(=O)CCCOP(=O)(O)O)S(C)(=O)=O)nn(CC(F)(F)F)c23)c([C@H](Cc2cc(F)cc(F)c2)NC(=O)Cn2nc(C(F)(F)F)c3c2C(F)(F)[C@@H]2C[C@H]32)n1)S(C)(=O)=O` [Compound 27, 4-(N-(4-chloro-7-(2-((S)-1-(2-((3bS,4aR)-5,5-difluoro-3-(trifluoromethyl)-3b,4,4a,5-tetrahydro-1H-cyclopropa[3,4]cyclopenta[1,2-c]pyrazol-1-yl)acetamido)-2-(3,5-difluorophenyl)ethyl)-6-(3-methyl-3-(methylsulfonyl)but-1-yn-1-yl)pyridin-3-yl)-1-(2,2,2-trifluoroethyl)-1H-indazol-3-yl)methylsulfonamido)-4-oxobutyl dihydrogen phosphate], the “pH 2 solubility” value [2] was 1 μM, the “pH 7 solubility” value [3] was 26 μM and the solubility (physchem; [4]) was 190 µg/mL. For the same molecule, the solubility (physchem; [5]) was 450 µg/mL.
For `CC(C)(C#Cc1ccc(-c2ccc(Cl)c3c(N(C(=O)CCC(CC(=O)O)NC(=O)OCOP(=O)(O)O)S(C)(=O)=O)nn(CC(F)(F)F)c23)c([C@H](Cc2cc(F)cc(F)c2)NC(=O)Cn2nc(C(F)(F)F)c3c2C(F)(F)[C@@H]2C[C@H]32)n1)S(C)(=O)=O` (stereo in doubt) [Compound 34, (R)-6-(N-(4-chloro-7-(2-((S)-1-(2-((3bS,4aR)-5,5-difluoro-3-(trifluoromethyl)-3b,4,4a,5-tetrahydro-1H-cyclopropa[3,4]cyclopenta[1,2-c]pyrazol-1-yl)acetamido)-2-(3,5-difluorophenyl)ethyl)-6-(3-methyl-3-(methylsulfonyl)but-1-yn-1-yl)pyridin-3-yl)-1-(2,2,2-trifluoroethyl)-1H-indazol-3-yl)methylsulfonamido)-6-oxo-3-((((phosphonooxy)methoxy)carbonyl)amino)hexanoic acid], the “pH 2 solubility” value [2] was 3 μM, the “pH 7 solubility” value [3] was 75 μM and the solubility (physchem; [4]) was greater than 2840 µg/mL. For the same molecule, the solubility (physchem; [5]) was 454 µg/mL (≈ 359 µM).
In the case of `CC(C)(C#Cc1ccc(-c2ccc(Cl)c3c(N(C(=O)[C@@H](N)CCCNC(=N)N)S(C)(=O)=O)nn(CC(F)(F)F)c23)c([C@H](Cc2cc(F)cc(F)c2)NC(=O)Cn2nc(C(F)(F)F)c3c2C(F)(F)[C@@H]2C[C@H]32)n1)S(C)(=O)=O` [Compound 22, 2-amino-N-(4-chloro-7-(2-((S)-1-(2-((3bS,4aR)-5,5-difluoro-3-(trifluoromethyl)-3b,4,4a,5-tetrahydro-1H-cyclopropa[3,4]cyclopenta[1,2-c]pyrazolyl)acetamido)-2-(3,5-difluorophenyl)ethyl)-6-(3-methyl-3-(methylsulfonyl)but-1-ynyl)pyridin-3-yl)-1-(2,2,2-trifluoroethyl)-1H-indazol-3-yl)-5-guanidino-N-(methylsulfonyl)pentanamide], the “pH 2 solubility” value [2] is reported as 100 μM, the “pH 7 solubility” value [3] is reported as 27 μM and the solubility (physchem; [5]) is reported as 0.2 µg/mL (≈ 0.178 µM).
In the case of `Cc1cc(CC(=O)NCP(=O)(O)O)c(C(C)(C)CC(=O)N(c2nn(CC(F)(F)F)c3c(-c4ccc(C#CC(C)(C)S(C)(=O)=O)nc4[C@H](Cc4cc(F)cc(F)c4)NC(=O)Cn4nc(C(F)(F)F)c5c4C(F)(F)[C@@H]4C[C@H]54)ccc(Cl)c23)S(C)(=O)=O)c(OP(=O)(O)O)c1` [Compound 61, ((2-(2-(4-(N-(4-chloro-7-(2-((S)-1-(2-((3bS,4aR)-5,5-difluoro-3-(trifluoromethyl)-3b,4,4a,5-tetrahydro-1H-cyclopropa[3,4]cyclopenta[1,2-c]pyrazol-1-yl)acetamido)-2-(3,5-difluorophenyl)ethyl)-6-(3-methyl-3-(methylsulfonyl)but-1-yn-1-yl)pyridin-3-yl)-1-(2,2,2-trifluoroethyl)-1H-indazol-3-yl)methylsulfonamido)-2-methyl-4-oxobutan-2-yl)-5-methyl-3-(phosphonooxy)phenyl)acetamido)methyl)phosphonic acid], the “pH 2 solubility” value (pH 2) is reported as 2/70 μM, the “pH 7 solubility” value (pH 7.4) is reported as 2/70 μM and the solubility (physchem; fassif) is reported as greater than 10000 µg/mL.
